Measurements published in publication PMC6842543, “Antiparasitic effect of synthetic aromathecins on Leishmania infantum” (BMC Veterinary Research, 2019).
Values after ≈ are worked out from the molar mass of the structure shown. “Also recorded” adds a separate entry of the source. Where two headings read alike, the source gives them in different places.

How the values were obtained:
[1] = system: L. infantum promastigotes; assay: In vitro iRFP L. infantum promastigotes viability assay (infrared fluorescence); type: cell-based, Leishmania infantum; conditions: Leishmania infantum, 72 h, read-out: EC50 L. infantum promastigotes
Procedure: (§1) Two series of aromathecins (Table 1) have been tested against both stages of L. infantum, free-living promastigotes and intracellular amastigotes harbored in mouse splenic cells. Experiments were carried out using a genetically modified L. infantum strain that constitutively produces the iRFP protein. This makes it possible to evaluate the viability of parasites measuring the fluorescence emitted at 708 nm.
The antiparasitic activity of the compounds was assessed on the genetically modified iRFP L. infantum strain, which constitutively produces the infrared fluorescent protein (iRFP) when cells are viable. iRFP L. infantum was grown at 26 °C in M-199 medium (Gibco) supplemented with 25 mM HEPES pH 7.2, 0.1 mM adenine, 0.0005% (w/v) hemin, 2 μg/mL biopterin, 0.0001% (w/v) biotin, 10% (v/v) heat-inactivated fetal bovine serum (FBS) and an antibiotic cocktail comprising 50 U/mL penicillin and 50 μg/mL streptomycin.
(§2) The viability of cultured parasites in the presence of different concentrations of aromathecins was determined by measuring the reduction of infrared fluorescence emitted by free-living promastigotes/amastigotes with respect to negative controls of each form of the parasite treated with DMSO (up to 0.1% final concentration) as a vehicle. […] After 72 h incubation at 26 °C, the infrared fluorescence emitted at 708 nm by viable promastigotes/amastigotes was measured in an Odyssey (Li-Cor) infrared imaging system. Similarly, the cytotoxic effect (CC50) of aromathecins on uninfected splenic explants from BALB/c mice (cells that naturally harbor the amastigote stage) was measured by the Alamar Blue (Invitrogen) assay. The selectivity index (SI) was determined as the relationship between the CC50 value and the EC50 value for amastigotes. CC50 and EC50 were calculated by nonlinear analysis using the Sigma-Plot 10.0 statistical package. The aromathecins were dissolved in DMSO and stored at − 20 °C before their use as fresh aliquots.

[2] = Cytotoxicity on uninfected splenic explants (Alamar Blue); type: cell-based, BALB/c mice; conditions: mouse, uninfected splenic explants from BALB/c mice, Alamar Blue
Procedure: (§3) The spleens were washed with cold phosphate-buffered saline (PBS), cut in small pieces and incubated for 20 min with 5 mL of 2 mg/mL collagenase D (Sigma) prepared in buffer (10 mM HEPES, pH 7.4, 150 mM NaCl, 5 mM KCl, 1 mM MgCl2 and 1.8 mM CaCl2). After that, the cell suspension obtained was passed through a 100 μm cell strainer, harvested by centrifugation (500×g for 7 min at 4 °C), washed twice with PBS, and cultured at 37 °C under 5% CO2 atmosphere in RPMI medium (Gibco) supplemented with 10 mM HEPES, 1 mM sodium pyruvate, 1xRPMI 1640 vitamin mix, 10% (v/v) FBS, 50 U/mL penicillin and 50 μg/mL streptomycin (Calvo-Álvarez et al., 2015).
as §2

L. infantum amastigotes = assay: Ex vivo murine splenic explant culture with intramacrophagic iRFP L. infantum amastigotes; type: cell-based, Leishmania infantum; conditions: for EC50: Leishmania infantum, 72 h, read-out: EC50 L. infantum amastigotes; for SI: Selectivity Index = CC50/EC50 (amastigotes): CC50 murine splenocytes / EC50 amastigotes
Procedure: as §1
Primary splenocyte cultures containing intramacrophagic amastigotes were obtained from dissected spleens of female BALB/c mice infected intraperitoneally with 1.5 × 10^9 metacyclic iRFP L. infantum promastigotes, 5 weeks before their sacrifice. Mice were obtained commercially (Janvier-Labs). Animals were housed in specific-pathogen free facilities and they were euthanized by cervical dislocation without anesthesia. These protocols were approved by the Animal Care Committee of University of Leon (project license SAF2017–83575-R), which complies with European Union Legislation (2010/63/UE) and Spanish Act (RD 53/2013).
as §3, §2

recombinant LTopIB = assay: TopIB relaxation activity assay (supercoiled pBluescript-SK plasmid, agarose gel with ethidium bromide); type: biochemical, Leishmania; conditions: for Inhibition of LTopIB relaxation activity (in words): 0.01, 0.1, 1, 10 and 100 μM, 26 °C, 4 min; for Total inhibition of LTopIB: only at high concentration (100 μM); for Concentration at which partial inhibition of LTopIB started: not concentration dependent
Procedure: In addition to the antileishmanial effect of these compounds, their activity as LTopIB inhibitors was analyzed in vitro (Fig. 2). Recombinant LTopIB was produced in a TopIB-defective yeast platform, and purified by standard chromatographic protocols. The effect of aromathecins (comp. 1 to 10) on LTopIB was addressed by measuring the relaxation of negatively supercoiled pBluescript-SK DNA plasmid in the presence of different concentrations of these molecules. In order to separate the nicked DNA generated by the cleavage-complex stabilization from the relaxed topoisomers, gels were run in the presence of ethidium bromide.
Fig. 2 Inhibition of LTopIB relaxation activity of negatively supercoiled pBluescript SK (−) plasmid (pSK) mediated by different aromathecins concentrations (0.01, 0.1, 1, 10 and 100 μM). The control reaction contained 1% DMSO. DNA was separated by gel electrophoresis in 1% agarose containing 0.1 μg/mL ethidium bromide. Gels were visualized with UV illumination. Key: R = relaxed DNA; Sc = supercoiled DNA; N = nicked DNA
Expression and purification of LTopIB were carried out according to a previously standardized protocol. LTopIB was purified from yeast strain EKY3 deficient in TopIB activity [MATα, ura3–52, his3Δ200, leu2Δ1, trp1Δ63, top1Δ:TRP1], transfected with the pESC-URA plasmid containing both subunits of LTopIB. Cells were grown in yeast synthetic drop-out medium without uracil (Sigma) supplemented with 2% raffinose (w/v) to OD600: 0.8–1 and induced for 10 h with 2% galactose (w/v). Yeast were harvested, washed with cold TEEG buffer (50 mM Tris-HCl pH 7.4, 1 mM EDTA, 1 mM EGTA, 10% glycerol) and resuspended to their lysis in 15 mL of 1 x TEEG buffer supplemented with 0.2 M KCl and a protease inhibitors cocktail (Thermo Scientific). Protein extract obtained was loaded on a 5 mL P-11 phosphocellulose column (Whatman International Ltd. England). LTopIB protein was eluted at 4 °C with a discontinuous gradient of KCl (0.2, 0.4, 0.6 M) in TEEG buffer.
The effect of aromathecins on recombinant LTopIB was determined by measuring the relaxation of negatively supercoiled pBluescript-SK DNA plasmid (pSK). Thus, 20 μL of reaction mixture (0.5 μg pSK; 10 mM Tris-HCl pH 7.5; 5 mM MgCl2; 0.1 mM EDTA; 15 μg/mL bovine serum albumin) along with 0.01, 0.1, 1, 10 and 100 μM of the different aromathecins were incubated at 26 °C during 4 min. The control reaction performed without aromathecins contained 1% DMSO. Reactions were stopped by adding 1% SDS (final concentration), digested with 1 mg/mL proteinase K at 37 °C during 1 h and extracted with phenol/chloroform. DNA was separated by gel electrophoresis in 1% agarose containing 0.1 μg/mL ethidium bromide in 0.1 M Tris borate EDTA buffer (pH 8.0) at 4 V/cm for 16 h. Gels were visualized with UV illumination.

L. infantum WT strain = assay: Susceptibility of WT strain promastigotes; type: cell-based, Leishmania infantum
Procedure: (§4) In order to evaluate if aromathecins would share the transporter involved in CPT resistance, one of the major problems related to the loss of effectiveness of CPT derivatives, a CPT-resistant strain was generated. The CPT-resistant strain used was generated by the exposure of L. infantum promastigotes to increasing concentrations of CPT, from 0.1 to 20 μM (CPT-20, from now on). […] Therefore, it is very likely that the resistance mechanism of CPT-20 is related to the overexpression of the ABCG6 transporter previously described as the drug-efflux pump involved in the CPT resistance mechanism. The CPT-20 strain was susceptible to the aromathecins assayed in this work (2, 5 and 10 were not assayed due to their poor effect against iRFP L. infantum promastigotes), showing very similar EC50 values to those obtained with iRFP L. infantum.

[3] = system: CPT-20 (CPT-resistant L. infantum promastigotes); assay: Susceptibility of CPT-resistant strain CPT-20 promastigotes; type: cell-based, Leishmania infantum; conditions: read-out: EC50 in CPT-20 strain
Procedure: as §4
(§5) The CPT resistant strain used in this work was generated exposing L. infantum promastigotes to increased concentrations of CPT, from 0.1 to the solubility limit of the compound, 20 μM in the case of CPT. Parasites were grown at 26 °C in M199 medium supplemented as described previously, each culture being inoculated at an initial density of 10^6 cells/mL. The promastigotes cultured in liquid medium in the presence of 20 μM CPT, were plated on semisolid M199 medium containing 20 μM CTP in order to select a single colony.

[4] = Solubility limit in culture medium; type: physicochemical; conditions: M199 culture medium
Procedure: as §5

[5] = iRFP-L. infantum promastigotes, 26 °C, fluorescence at 708 nm, average of three experiments by duplicate
[6] = uninfected splenic explants (murine splenocytes)
[7] = splenic-infecting amastigotes, ex vivo explants from infected BALB/c mice
[8] = read-out: CC50 Murine Splenocytes

Structure (SMILES)	EC50 [1, 5]	CC50 at 72 h [2, 6]	EC50 (L. infantum amastigotes; [7])	Inhibition of LTopIB relaxation activity (in words) (recombinant LTopIB)	SI: Selectivity Index = CC50/EC50 (amastigotes) (L. infantum amastigotes)	Concentration at which partial inhibition of LTopIB started (recombinant LTopIB)	further results
NCCNCc1c2c(nc3ccccc13)-c1cc3ccccc3c(=O)n1C2 [Compound 2]	> 20 µM	2.17 ± 0.27 µM	0.81 ± 0.05 µM	–	–	–	–
CN(C)CCCc1c2c(nc3cc4c(cc13)OCCO4)-c1cc3ccccc3c(=O)n1C2 [Compound 9]	3.03 ± 0.45 µM	3.04 ± 1.06 µM	0.37 ± 1.06 µM	only happed at a high concentration	8.0	–	Total inhibition of LTopIB (recombinant LTopIB): total inhibition
O=c1c2ccccc2cc2n1Cc1c-2nc2ccccc2c1CCCn1ccnc1 [Compound 5]	> 20 µM	–	0.44 ± 0.03 µM	partial inhibition	5.2	0.01 µM	CC50 at 72 h [2, 8]: 2.31 ± 0.72 µM
O=c1c2ccccc2cc2n1Cc1c-2nc2ccccc2c1CCCNCCO [Compound 4]	4.99 ± 0.31 µM	4.96 ± 0.52 µM	0.99 ± 1.17 µM	partial inhibition	5.0	0.01 µM	–
CN(C)CCCc1c2c(nc3ccccc13)-c1cc3ccccc3c(=O)n1C2 [Compound 1]	6.27 ± 0.7 µM	4.41 ± 1.07 µM	0.45 ± 0.14 µM	partial inhibition; also recorded: inhibit the enzyme at very low concentrations	9.8	0.01 µM	–
CC[C@@]1(O)C(=O)OCc2c1cc1n(c2=O)Cc2cc3c(CN(C)C)c(O)ccc3nc2-1 [topotecan]	–	–	–	–	–	–	EC50 (L. infantum WT strain; Leishmania infantum): 9.54 ± 0.22 µM; EC50 ([3]; Leishmania infantum): > 100 µM
O=c1c2ccccc2cc2n1Cc1c-2nc2cccc(Cl)c2c1CNCCCn1ccnc1 [Compound 6]	3.33 ± 0.17 µM	0.7 ± 0.12 µM	0.19 ± 0.03 µM	did not have any inhibitory effect; also recorded: do not have LTopIB inhibitory activity	3.7	–	–
CC[C@@]1(O)C(=O)OCc2c1cc1n(c2=O)Cc2cc3ccccc3nc2-1 [CPT, Camptothecin, reference compound]	–	–	–	–	–	–	EC50 [1]: 1.12 ± 0.13 µM; CC50 at 72 h [2, 8]: 0.62 ± 0.01 µM; solubility [4]: 20 µM (≈ 6.97 µg/mL); EC50 (L. infantum amastigotes): 0.03 ± 0.01 µM
CN(C)Cc1c2c(nc3cc4c(cc13)OCCO4)-c1cc3ccccc3c(=O)n1C2 [Compound 8]	5.09 ± 0.82 µM	3.72 ± 0.76 µM	0.35 ± 0.03 µM	–	10.6	–	Nicked DNA from cleavage-complex stabilization (recombinant LTopIB; gel run in the presence of ethidium bromide): weak band of nicked DNA; also recorded: nick DNA from cleavage-complex stabilization
NCCCCNCc1c2c(nc3ccccc13)-c1cc3ccccc3c(=O)n1C2 [Compound 3]	3.71 ± 0.45 µM	2.53 ± 0.14 µM	1.01 ± 0.13 µM	partial inhibition	2.5	0.01 µM	Total inhibition of LTopIB (recombinant LTopIB): total inhibition
O=c1c2ccccc2cc2n1Cc1c-2nc2cc3c(cc2c1Cn1ccnc1)OCCO3 [Compound 10]	> 20 µM	5.56 ± 1.13 µM	0.58 ± 0.05 µM	did not have any inhibitory effect; also recorded: do not have LTopIB inhibitory activity	9.3	–	–
NCCCc1c2c(nc3cc4c(cc13)OCCO4)-c1cc3ccccc3c(=O)n1C2 [Compound 7]	13.3 ± 2.74 µM	–	1.11 ± 0.08 µM	partial inhibition	–	0.01 µM	Total inhibition of LTopIB (recombinant LTopIB): total inhibition; CC50 at 72 h [2, 8]: 0.31 ± 0.04 µM
CCc1c2c(nc3ccc(O)cc13)-c1cc3c(c(=O)n1C2)COC(=O)[C@]3(O)CC [SN38]	–	–	–	–	–	–	EC50 (L. infantum WT strain): 4.73 ± 0.14 µM; EC50 ([3]; CPT-resistant L. infantum promastigotes selected up to 20 μM CPT): 40.98 ± 0.3 µM
